The text below walks through data of patent US7662997B2, “Synthesis and applications of 2-oxo-4-methylthiobutyric acid, its salts and its derivatives” (Adisseo Ireland Limited, priority 2004, dated 2010).

Read-outs that look alike come from different tables or passages of the source.

The conditions of this data set: chicken; for Cl D7-D21 Delta (%) / Consumption D7-D21 Delta (%) / Weight gain D7-D21 Delta (%): relative to control R1. How it is done:
The starting product is a food base that is deficient in methionine, methionine being the nutritional element for which it is desired to observe a response, and the said nutritional element that is lacking is then introduced in the reference forms and in the test form, and then the performance levels obtained in each of the systems are compared, system R1 corresponding to no introduction of methionine.
Two chickens per cage are tested, with controlled randomization by chance.
Seven treatments were carried out:
R1: without added methionine,
R2 and R3: +Rhodimet™ NP99 (D,L-methionine powder sold by the applicant) at two different doses,
R4 and R5: +Rhodimet™ AT88, at two different doses
R6 and R7: +KMB, at two different doses.
They were each repeated 14 times and are represented in Table 3 below.
Zootechnical performance levels as a function of treatments (period 7-21 days)
The smaller the number of grams required to obtain one gram of weight gain, the greater the efficiency of the product, as illustrated in the FIGURE.
The ratio of KMB efficiency to DL-methionine efficiency is then calculated by calculating the ratio of the conversion efficiency values calculated at the two doses used.

The mark [1] stands for this setting: addition of 0.1% of methionine, 7-21 days, versus control.
Where [2] appears, read: higher dose (NP99 0.200%, AT88 0.225%, KMB 0.204%).
Setting [3] is: higher dose (R3 NP99 0.200%, R5 AT88 0.225%, R7 KMB 0.204%).
The mark [4] stands for this setting: lower dose (NP99 0.100%, AT88 0.113%, KMB 0.102%).
Where [5] appears, read: lower dose (R2 NP99 0.100%, R4 AT88 0.113%, R6 KMB 0.102%).

`CSCCC(N)C(=O)O` (racemic) [Rhodimet™ NP99, D,L-methionine]: under setting [1], the “decrease of the consumption index” value is −11% and the “increase of the weight gain” value is reported as 90 g. Also, under setting [2], the “Cl D7-D21 Delta (%)” value is recorded as −9.2%, the “Consumption D7-D21 Delta (%)” value came out at 5.5% and the “Weight gain D7-D21 Delta (%)” value was found to be 16.2%. Moreover, under setting [3], the “Consumption D7-D21 (g) Means” value was 823 g, the “Mortality D7-D21” value is given as 0.0% and the “Weight gain D7-D21 (g) Means” value stood at 527 b g. Also, under setting [4], the “Cl D7-D21 Delta (%)” value is on record as −11.1%, the “Consumption D7-D21 Delta (%)” value was found to be 6.7% and the “Weight gain D7-D21 Delta (%)” value is reported as 19.8%. Under setting [5], the “Consumption D7-D21 (g) Means” value is on record as 832 g, the “Mortality D7-D21” value came out at 0.0% and the “Weight gain D7-D21 (g) Means” value came to 544 b g.
